Assay results as given in patent US20240239775A1, “FXR REGULATOR, PREPARATION METHOD THEREFOR, PHARMACEUTICAL COMPOSITION THEREOF AND USE THEREOF” (QINGDAO RUIJI MEDICAL TECHNOLOGY CO., LTD., priority 2021, published 2024).

Target: T1, FXR (Homo sapiens, UniProt Q96RI1)
T1 construct: 5 μL of 20 nM FXR-LBD Complete Coregulator buffer G; purchased ThermoFisher PV4833
T1 sequence (Q96RI1 262-486 limits assumed): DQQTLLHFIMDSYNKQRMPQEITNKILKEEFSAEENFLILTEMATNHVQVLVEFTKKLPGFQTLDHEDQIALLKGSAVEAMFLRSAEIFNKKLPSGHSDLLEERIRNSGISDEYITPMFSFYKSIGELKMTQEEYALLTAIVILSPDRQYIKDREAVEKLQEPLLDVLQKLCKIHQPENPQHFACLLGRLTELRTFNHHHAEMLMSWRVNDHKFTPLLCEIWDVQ
Assay: FXR antagonist screening by TR-FRET (LanthaScreen TR-FRET FXR co-activation assay kit)
Type: biochemical
Details: Table 1.1, FXR antagonistic activity; TR-FRET with CDCA; geometric means of at least two independent runs
In short: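 FXR-LBD (20 nM working solution) mixed with compound, CDCA (200 μM working solution) as agonist, Fluorescein-SRC2-2 and Tb-anti-GST antibody in Coregulator buffer G; 10 h at room temperature. Coactivator recruitment read by TR-FRET, triplicate wells.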

| Compound | IC50 [µM] |
| --- | --- |
| CCOC(=O)c1oc2ccc(S(=O)(=O)N(CCc3ccccc3)Cc3ccc(/C=C/C(=O)OC)cc3)cc2c1C [Example M4-42, (E)ethyl-3-methyl-5-(N-(4-(3-methoxy-3-oxoprop-1-en-1-yl)benzyl)-N-phenethylsulfamoyl)benzofuran-2-carboxylate] | 50 to 100 |
| CCOC(=O)c1oc2ccc(S(=O)(=O)N(CCc3ccccc3)Cc3c(C)cccc3C)cc2c1C [Example M4-50, ethyl 3-methyl-5-(N-(2,6-dimethylbenzyl)-N-phenethylsulfamoyl)benzofuran-2-carboxylate] | 50 to 100 |
| CCOC(=O)c1oc2ccc(S(=O)(=O)N(CCc3ccccc3)c3ccc(Cc4ccccc4)cc3)cc2c1C [Example M8-11, ethyl 3-methyl-5-(N-(4-benzylphenyl)-N-phenethylsulfamoyl)benzofuran-2-carboxylate] | 50 to 100 |
| CCOC(=O)c1oc2ccc(S(=O)(=O)N(CCc3ccccc3)Cc3ccc4ccccc4c3)cc2c1C [Example M4-45, ethyl 3-methyl-5-(N-(naphthalen-2-ylmethyl)-N-phenethylsulfamoyl)benzofuran-2-carboxylate] | 50 to 100 |

Same assay, conditions: Table 1.2, FXR antagonistic activity; TR-FRET with CDCA; geometric means of at least two independent runs

| Compound | IC50 [µM] |
| --- | --- |
| Cc1c(C(=O)O)sc2ccc(S(=O)(=O)N(CCc3cccs3)c3ccccc3N3CCN(C(=O)c4sccc4Br)CC3)cc12 [Example F27-S183, 5-(N-(2-(4-(3-bromothiophene-2-carbonyl)piperazin-1-yl)phenyl)-N-(2-(thiophen-2-yl)ethyl)sulfamoyl)-3-methylbenzothiophene-2-carboxylic acid] | 0.1 to 10 |
| CCOC(=O)c1oc2ccc(S(=O)(=O)N(CCc3ccccc3)c3ccccc3N3CCN(C(=O)c4ccc(C(F)(F)F)cc4)CC3)cc2c1C [Example M10-110] | 50 to 100 |
| CCOC(=O)c1oc2ccc(S(=O)(=O)N(CCc3ccccc3)c3ccccc3N3CCC(NC(=O)c4sccc4Br)CC3)cc2c1C [Example M10-147, ethyl 5-(N-(2-(4-(3-bromothiophene-2-carboxamido)piperidin-1-yl)phenyl)-N-phenethylsulfamoyl)-3-methylbenzofuran-2-carboxylate] | 50 to 100 |
| CCOC(=O)c1sc2ccc(S(=O)(=O)N(C)c3ccccc3N3CCN(C(=O)c4sccc4Br)CC3)cc2c1C [Example M10-182, Ethyl 5-(N-(2-(4-(3-bromothiophene-2-carbonyl)piperazin-1-yl)phenyl)-N-methylsulfamoyl)-3-methylbenzothiophene-2-carboxylate] | 50 to 100 |
| Cc1c(C(=O)O)oc2ccc(S(=O)(=O)N(CCc3ccccc3)c3ccccc3N3CCN(C(=O)c4sccc4Cl)CC3)cc12 [Example F27-S126, 5-(N-(2-(4-(3-chlorothiophene-2-carbonyl)piperazin-1-yl)phenyl)-N-phenethylsulfamoyl)-3-methyl benzofuran-2-carboxylic acid] | 0.1 to 10 |
| CCOC(=O)c1sc2ccc(S(=O)(=O)N(CCc3ccccc3[N+](=O)[O-])c3ccccc3N3CCN(C(=O)c4sccc4Br)CC3)cc2c1C [Example M10-174] | 50 to 100 |
| CCOC(=O)c1oc2cc(S(=O)(=O)N(CCc3ccccc3)c3ccccc3N3CCN(C(=O)c4sccc4Br)CC3)ccc2c1C [Example M10-163, Ethyl 6-(N-(2-(4-(3-bromothiophene-2-formyl)piperazin-1-yl)phenyl)-N-phenethylsulfamoyl)-3-methylbenzofuran-2-carboxylate] | 50 to 100 |
| CCOC(=O)c1oc2ccc(S(=O)(=O)N(CCc3ccccc3)c3ccccc3N3CCN(C(=O)c4ccc(C(C)=O)cc4)CC3)cc2c1C [Example M10-115, Ethyl 5-(N-(2-(4-(4-acetylbenzoyl)piperazin-1-yl)phenyl)-N-phenethylsulfamoyl)-3-methylbenzofuran-2-carboxylate] | 50 to 100 |
| CCOC(=O)c1oc2ccc(S(=O)(=O)N(CCc3ccccc3)c3ccccc3N3CCCN(C(=O)c4sccc4Br)CC3)cc2c1C [Example M10-154, Ethyl 5-(N-(2-(4-(3-bromothiophene-2-formyl)-1,4-diazepin-1-yl)phenyl)-N-phenethylsulfamoyl)-3-methylbenzofuran-2-carboxylate] | 50 to 100 |
